What all share (format): cell-based
Test [1] concerns Cryptococcus neoformans ATCC MYA-422. Kind of test: microbe, parasite or virus in culture. The following applies: ATCC MYA-422, pH 7.4; read-out: Minimal Inhibitory Concentration, Cyrptococcus neoformans (ATCC MYA-422).
The next test has as its system E. coli D21. The following applies: D21, pH 7.4.
Test [2] deals with Candida albicans ATCC 10231. Kind of test: microbe, parasite or virus in culture. The note with it: ATCC 10231, pH 7.4; read-out: Minimal Inhibitory Concentration, Candida Albicans (ATCC 10231). The protocol: The antifungal activity of the lipopeptides was examined in sterile 96-well plates (Nunc F96 microtiter plates) in a final volume of 200 μL as follows: 100 µl of a suspension containing fungi at a concentration of 1×10^4 Colony-Forming Units (CFU)/ml in culture medium (RPMI 1640, 0.165 M MOPS with L-glutamine, without NaHCO3) at pH 7.4 or pH 5.5 (adjustment of the pH was done by diluted solutions of HCl and NaOH) were added to 100 μl of water containing the peptide in serial 2-fold dilutions in water. The fungi were incubated in the presence of the lipopeptides for 24-48 h at 35° C. in a Binder KB115 incubator under agitation. Growth inhibition was determined by measuring the absorbance at 620 nm with a Microplate autoreader E1309 (Bio-Tek Instruments). Antifungal activity is expressed as the minimal inhibitory concentration (MIC), the concentration at which 100% inhibition of fungi growth was observed after the incubation time mentioned above. The fungi used were: Aspergillus niger ATCC 9642, Candida albicans ATCC 10231 and Cryptococcus neoformans ATCC 66031. If not indicated otherwise, the fungi growth was detected at pH 7.4.

In test [3] the test system is Staphylococcus aureus ATCC 6538P. The following applies: ATCC 6538, pH 7.4. Here is the method: (§1) The antibacterial activity of the lipopeptides was examined in sterile 96-well plates (Nunc F96 microtiter plates) in a final volume of 100 μl as follows: Aliquots (50 μl) of a suspension containing bacteria at concentration of 1×10^6 Colony-Forming Units (CFU)/ml in culture LB (Lauria broth) medium (pH 7.4 or pH 5.5) were added to 50 μl of water containing the lipopeptide in serial 2-fold dilutions in water. Adjustment of the pH was done by diluted solutions of HCl and NaOH Inhibition of growth was determined by measuring the absorbance at 600 nm with a Microplate autoreader E1309 (Bio-Tek Instruments), after an incubation time of 18-20 h at 37° C. Antibacterial activities were expressed as the minimal inhibitory concentration (MIC), the concentration at which 100% inhibition of growth was observed after 18-20 h of incubation. The bacteria used were: Escherichia coli ATCC 25922, Acinetobacter baumannii ATCC 19606, Pseudomonas aeruginosa ATCC 27853, Staphylococcus aureus ATCC 6538P, Enterococcus faecalis ATCC 29212, Enterobacter cloacae ATCC 49141. The antibacterial activity of lipopeptides was also examined against resistant bacteria: methicilin-resistant Staphylococcus aureus (MRSA) ATCC 700698 and vancomycin-resistant Enterococcus faecium (VRE) ATCC 700221. If not indicated otherwise, the bacterial growth was detected at pH 7.4.

In test [4] the test system is Acinetobacter baumannii ATCC 19606. The following applies: ATCC 19606, pH 7.4. Here is the method:
as §1

In test [5] the test system is Aspergillus fumigatus ATCC 26430. Kind of test: microbe, parasite or virus in culture. The note with it: ATCC 26430, pH 7.4; read-out: Minimal Inhibitory Concentration, Aspergillus Fomigatus (ATCC 26430).
Test [6] relates to Pseudomonas aeruginosa ATCC 27853. The note with it: ATCC 27853, pH 7.4. Here is the method:
as §1

Each structure is given as a SMILES string. Converted amounts (≈) assume the structure as drawn. Non-standard residues stand in square brackets, D forms with d. Residues, ends and D or L forms follow the SMILES beside them. *: point of attachment. Palmitoyl = CCCCCCCCCCCCCCCC(=O)* Some results are limits rather than exact numbers.

From US8445636B2, “Antimicrobial and anticancer lipopeptides” (Yeda Research & Development Co. Ltd., priority 2003, dated 2013) come the findings set out here.

Consider `CCCCCCCCCCCCCC(=O)N[C@@H](CCCCN)C(=O)N[C@@H](CCCCN)C(=O)N[C@@H](CCCCN)C(N)=O` [MYR-KKK], for which the MIC in test [1] was 12.5 µM (≈ 7.65 µg/mL); in test [2] it was above 100 µM; in test [5], 100 µM (≈ 61.2 µg/mL). In the test with E. coli D21, the “Minimal Inhibitory Concentration, E. coli-D21” value came out at 25 µM. Further, the “Minimal Inhibitory Concentration, S. aureus ATCC 6538P” value in test [3] worked out at 12.5 µM. The “Minimal Inhibitory Concentration, A. baumannii ATCC 19606” value in test [4] is above 100 µM.

As for `CCCCCCCCCCCCCCCC(=O)N[C@@H](CCCNC(=N)N)C(=O)N[C@@H](CC(C)C)C(=O)N[C@H](CC(C)C)C(=O)N[C@@H](CCCNC(=N)N)C(N)=O` [PA-RLLR, Palmitoyl-Arg-Leu-D-Leu-Arg-NH2] (Palmitoyl-RL[dL]R-NH2), the MIC in test [1] was found to be 1.56 µM (≈ 1.24 µg/mL); in test [2], 25 µM (≈ 19.9 µg/mL); in test [5] it was 6.25 µM (≈ 4.96 µg/mL). Moreover, the “Minimal Inhibitory Concentration, E. coli-D21” value in the test on E. coli D21 is above 100 µM. The “Minimal Inhibitory Concentration, P. aeruginosa ATCC 27853” value in test [6] is above 100 µM. The “Minimal Inhibitory Concentration, S. aureus ATCC 6538P” value in test [3] turned out to be 25 µM. The “Minimal Inhibitory Concentration, A. baumannii ATCC 19606” value in test [4] was above 100 µM.

Turning to `CCCCCCCCCCCCCCCC(=O)N[C@@H](CCCCN)C(=O)N[C@@H](C)C(=O)N[C@H](C)C(=O)N[C@@H](CCCCN)C(N)=O` [PA-KAAK, Palmitoyl-Lys-Ala-D-Ala-Lys-NH2] (Palmitoyl-KA[dA]K-NH2), the MIC is listed as 3.12 µM (≈ 2.04 µg/mL) in test [1], 25 µM (≈ 16.3 µg/mL) in test [2] and 12.5 µM (≈ 8.17 µg/mL) in test [5]. In the test with E. coli D21, the “Minimal Inhibitory Concentration, E. coli-D21” value turned out to be 6.25 µM. Further, the “Minimal Inhibitory Concentration, P. aeruginosa ATCC 27853” value in test [6] stood at 100 µM. The “Minimal Inhibitory Concentration, S. aureus ATCC 6538P” value in test [3] came to 6.25 µM. Also, the “Minimal Inhibitory Concentration, A. baumannii ATCC 19606” value in test [4] was determined as 100 µM.

With `CCCCCCCCCCCCCCCC(=O)N[C@@H](CCCCN)C(=O)N[C@H](CCCCN)C(=O)N[C@@H](CCC(=O)O)C(=O)N[C@@H](CCCCN)C(N)=O` [PA-KKEK, Palmitoyl-Lys-D-Lys-Glu-Lys-NH2] (Palmitoyl-K[dK]EK-NH2), the results for the MIC in test [1], in test [2] and in test [5] were 12.5 µM (≈ 9.61 µg/mL), 50 µM (≈ 38.5 µg/mL) and 50 µM (≈ 38.5 µg/mL), respectively. For the same compound, the “Minimal Inhibitory Concentration, E. coli-D21” value in the test on E. coli D21 is 25 µM. The “Minimal Inhibitory Concentration, P. aeruginosa ATCC 27853” value in test [6] amounted to 100 µM. Besides, in test [3], the “Minimal Inhibitory Concentration, S. aureus ATCC 6538P” value was determined as 25 µM. In addition, the “Minimal Inhibitory Concentration, A. baumannii ATCC 19606” value in test [4] is 100 µM.
